Tests used:
Format in all cases: cell-based
[1] = system: L1210 (mouse lymphocytic leukemia); test: Test on cell proliferation (MTT test), L1210; conditions: 48 hours
Method: (§1) a. Eight tumoral cell lines are used in this study: L1210 (mouse lymphocytic leukemia), HCT15 and LOVO (cell lines of human colon adenocarcinoma), A549 (human lung carcinoma), A172, U373 et U87 (human glioblastoma). All these lines are obtained from the American Type Culture Collection (ATCC), Rockville, Md. The L1210 cell cultures in suspension are cultured in Dulbecco's modified Eagle's medium (DMEM) (BioWhitaker, Verviers, Belgium) together with 10% of foetal calf serum inactivated by heating, 2 mM of glutamine, 50 μg/ml of penicillin and 50 μg/ml of streptomycin. The HT29 cells are cultured in mono-layer cultures in a McCoy 5a medium (Gibco, Paisley, United Kingdom) together with 10% of foetal calf serum inactivated by heat plus 2 mM of glutamine and 50 μg/ml of gentamycin. The other cells are cultured in an Earle's modified essential medium (EMEM; Gibco, Paisley, United Kingdom) together with 5% foetal calf serum inactivated by heat, 2 mM of glutamine, 50 U/ml of penicillin and 50 μg/ml of streptomycin. All the cell lines are cultured at 37° C. in a humidified atmosphere containing 95% air and 5% CO2.
(§2) Inhibition of the tumor cell line proliferation is determined using an MTT test. 1500 L1210 cells in a culture medium (according to the needs of the cell medium) are seeded in a well of a micro-well plate (tissue culture level: 96 wells, flat bottom) 24 hours before treatment with the compounds to be tested. For these dose-response studies, the cells are incubated with each of the compounds to be tested or their corresponding solvent (controls) for 48 hours over a final concentration range of 1.10^−10 to 1.10^−4 M. All the compounds are dissolved just before use in dimethylsulphoxide (DMSO) at a concentration of 50 mM. Other dilutions of the medicaments are carried out in the culture medium. The final concentration of DMSO never exceeds 0.2% (v/v). As controls, the solutions of medicaments are replaced with the solvent which is diluted successively in the same way as the compounds to be tested.
(§3) After the incubation period, the labeling reagent MTT (3-[4,5-dimethylthiazol-2-yl]-2,5-diphenyltetrazolium bromide; Thiazol blue, Sigma M 565, Sigma, St Louis, Mo.) is added at a final concentration of 0.3 mg/ml to each well. The cells are incubated for 4 hours at 37° C. in a humidified atmosphere. This stage allows the mitochondrial dehydrogenase of the living cells to convert the yellow tetrazolium salt MTT into crimson formazan crystals. The supernatant part is eliminated and the formazan crystals formed are solubilized with DMSO. The resultant coloured solution is quantified by absorbance at 570 nm by using a multi-cuvette scanning spectrophotometer. The data concerning the proliferation is expressed as a percentage of living cells in the treated wells, divided by the living cells in the controls. Each point represents the average of three independent experiments, each experiment represents six determinations.
(§4) The results are expressed as percentages of the calculated proliferation by the optical density (OD) of the cells treated with a medicament divided by the OD of the control cells (cells treated with DMSO). As represented in Table II, the compounds to be tested have inhibited the proliferation of cells in a dose-dependent manner.

[2] = system: HCT15 (cell lines of human colon adenocarcinoma); test: Test on cell proliferation (MTT test), HCT15; conditions: 72 hours
Method: as §1, §2, §3
(§5) For the other cell lines (HCT15, LOVO, A549, A172, U373, U87), 1000 to 2000 cells are seeded in the well of a micro-well plate 24 hours before medicinal treatment. […]
as §4

[3] = system: LOVO (cell lines of human colon adenocarcinoma); test: Test on cell proliferation (MTT test), LOVO; conditions: 72 hours
Method: as §1, §2, §3, §5, §4

[4] = system: A549 (human lung carcinoma); test: Test on cell proliferation (MTT test), A549; conditions: 72 hours
Method: as §1, §2, §3, §5, §4

[5] = system: A172 (human glioblastoma); test: Test on cell proliferation (MTT test), A172; conditions: 72 hours
Method: as §1, §2, §3, §5, §4

[6] = system: U373 (human glioblastoma); test: Test on cell proliferation (MTT test), U373; conditions: 72 hours
Method: as §1, §2, §3, §5, §4

U87 (human glioblastoma) = test: Test on cell proliferation (MTT test), U87; conditions: 72 hours
Method: as §1, §2, §3, §5, §4

Compound: CCC1(O)CC(=O)OCc2c1cc1n(c2=O)Cc2cc3ccccc3nc2-1 (stereo not shown) [Example 3, 5-ethyl-5-hydroxy-1,4,5,13-tetrahydro-3H,15H-oxepino [3′,4′:6,7]indolizino[1,2-b]quinoline-3,15-dione]
- PERCENTAGE OF CELL PROLIFERATION ([1]; 0.1 nM): 87.22%
- PERCENTAGE OF CELL PROLIFERATION ([1]; 1 nM): 68.92%
- PERCENTAGE OF CELL PROLIFERATION ([1]; 10 nM): 42.64%
- PERCENTAGE OF CELL PROLIFERATION ([1]; 100 nM): 26.85%
- PERCENTAGE OF CELL PROLIFERATION ([1]; 1 000 nM): 10.83%
- PERCENTAGE OF CELL PROLIFERATION ([1]; 10 000 nM): 2.11%
- PERCENTAGE OF CELL PROLIFERATION ([1]; 100 000 nM): 2.20%
- PERCENTAGE OF CELL PROLIFERATION ([2]; 0.1 nM): 86.00%
- PERCENTAGE OF CELL PROLIFERATION ([2]; 1 nM): 84.00%
- PERCENTAGE OF CELL PROLIFERATION ([2]; 10 nM): 58.00%
- PERCENTAGE OF CELL PROLIFERATION ([2]; 100 nM): 44.00%
- PERCENTAGE OF CELL PROLIFERATION ([2]; 1 000 nM): 18.00%
- PERCENTAGE OF CELL PROLIFERATION ([2]; 10 000 nM): 9.00%
- PERCENTAGE OF CELL PROLIFERATION ([2]; 100 000 nM): 13.00%
- PERCENTAGE OF CELL PROLIFERATION ([3]; 0.1 nM): 108.00%
- PERCENTAGE OF CELL PROLIFERATION ([3]; 1 nM): 86.00%
- PERCENTAGE OF CELL PROLIFERATION ([3]; 10 nM): 54.00%
- PERCENTAGE OF CELL PROLIFERATION ([3]; 100 nM): 31.00%
- PERCENTAGE OF CELL PROLIFERATION ([3]; 1 000 nM): 23.00%
- PERCENTAGE OF CELL PROLIFERATION ([3]; 10 000 nM): 10.00%
- PERCENTAGE OF CELL PROLIFERATION ([3]; 100 000 nM): 12.00%
- PERCENTAGE OF CELL PROLIFERATION ([4]; 0.1 nM): 132.00%
- PERCENTAGE OF CELL PROLIFERATION ([4]; 1 nM): 111.00%
- PERCENTAGE OF CELL PROLIFERATION ([4]; 10 nM): 75.00%
- PERCENTAGE OF CELL PROLIFERATION ([4]; 100 nM): 39.00%
- PERCENTAGE OF CELL PROLIFERATION ([4]; 1 000 nM): 35.00%
- PERCENTAGE OF CELL PROLIFERATION ([4]; 10 000 nM): 10.00%
- PERCENTAGE OF CELL PROLIFERATION ([4]; 100 000 nM): 11.00%
- PERCENTAGE OF CELL PROLIFERATION ([5]; 0.1 nM): 89.00%
- PERCENTAGE OF CELL PROLIFERATION ([5]; 1 nM): 101.00%
- PERCENTAGE OF CELL PROLIFERATION ([5]; 10 nM): 68.00%
- PERCENTAGE OF CELL PROLIFERATION ([5]; 100 nM): 37.00%
- PERCENTAGE OF CELL PROLIFERATION ([5]; 1 000 nM): 27.00%
- PERCENTAGE OF CELL PROLIFERATION ([5]; 10 000 nM): 10.00%
- PERCENTAGE OF CELL PROLIFERATION ([5]; 100 000 nM): 7.00%
- PERCENTAGE OF CELL PROLIFERATION ([6]; 0.1 nM): 99.00%
- PERCENTAGE OF CELL PROLIFERATION ([6]; 1 nM): 98.00%
- PERCENTAGE OF CELL PROLIFERATION ([6]; 10 nM): 40.00%
- PERCENTAGE OF CELL PROLIFERATION ([6]; 100 nM): 24.00%
- PERCENTAGE OF CELL PROLIFERATION ([6]; 1 000 nM): 17.00%
- PERCENTAGE OF CELL PROLIFERATION ([6]; 10 000 nM): 13.00%
- PERCENTAGE OF CELL PROLIFERATION ([6]; 100 000 nM): 9.00%
- PERCENTAGE OF CELL PROLIFERATION (U87 (human glioblastoma); 0.1 nM): 108.00%
- PERCENTAGE OF CELL PROLIFERATION (U87 (human glioblastoma); 1 nM): 85.00%
- PERCENTAGE OF CELL PROLIFERATION (U87 (human glioblastoma); 10 nM): 42.00%
- PERCENTAGE OF CELL PROLIFERATION (U87 (human glioblastoma); 100 nM): 23.00%
- PERCENTAGE OF CELL PROLIFERATION (U87 (human glioblastoma); 1 000 nM): 15.00%
- PERCENTAGE OF CELL PROLIFERATION (U87 (human glioblastoma); 10 000 nM): 5.00%
- PERCENTAGE OF CELL PROLIFERATION (U87 (human glioblastoma); 100 000 nM): 6.00%

From patent US6815546B2, “Analogues of camptothecin, their use as medicaments and the pharmaceutical compositions containing them” (Societe de Recherches et d'Applications Scientifiques …, priority 1995, dated 2004)
